# Reference: US10202361B2, “Pyridazinones as herbicides” (E I DU PONT DE NEMOURS AND COMPANY, priority 2014, dated 2019)
# Where two headings read alike, the source gives them in different places.
# Legend:
# Assay type in all cases: in vivo
# [1] = system: wheat (winter wheat, Triticum aestivum); experiment: Test C pre-/postemergence greenhouse herbicide test; conditions: for plant injury at 62 g/ha: 62 g ai/ha; for plant injury at 125 g/ha: 125 g ai/ha; for plant injury at 250 g/ha: 250 g ai/ha; for Plant response rating, Wheat: visual rating on scale 0 (no effect) to 100 (complete control), 13 to 15 d
# Procedure, shortened: (§1)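 Visual ratings, 0 = no effect, 100 = complete control, vs untreated controls at 13–15 d. Pre: seeds in loam/sand. Post: 2–18 cm plants (1–4 leaf), peat/vermiculite mix. Surfactant-containing solvent formulation; greenhouse.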
# [2] = system: pigweed (Amaranthus retroflexus); experiment: as above; conditions: for pest or weed control at 31 g/ha / pest or weed control at 62 g/ha / pest or weed control at 125 g/ha / pest or weed control at 250 g/ha: Amaranthus retroflexus, Pigweed, read-out: Plant response rating; for pest or weed control at 31 g/ha: 31 g ai/ha; for pest or weed control at 62 g/ha: 62 g ai/ha; for pest or weed control at 125 g/ha: 125 g ai/ha; for pest or weed control at 250 g/ha: 250 g ai/ha; for Plant response rating, Pigweed: visual rating on scale 0 (no effect) to 100 (complete control), 13 to 15 d
# Procedure, shortened: as §1
# [3] = system: ragweed (common ragweed, Ambrosia elatior); experiment: as above; conditions: for pest or weed control at 31 g/ha / pest or weed control at 62 g/ha / pest or weed control at 125 g/ha / pest or weed control at 250 g/ha: Ambrosia artemisiifolia, Ragweed, read-out: Plant response rating; for pest or weed control at 31 g/ha: 31 g ai/ha; for pest or weed control at 62 g/ha: 62 g ai/ha; for pest or weed control at 125 g/ha: 125 g ai/ha; for pest or weed control at 250 g/ha: 250 g ai/ha; for Plant response rating, Ragweed: visual rating on scale 0 (no effect) to 100 (complete control), 13 to 15 d
# Procedure, shortened: as §1
# [4] = system: johnsongrass (Sorghum halepense); experiment: as above; conditions: for pest or weed control at 31 g/ha / pest or weed control at 62 g/ha / pest or weed control at 125 g/ha / pest or weed control at 250 g/ha: Sorghum halepense, Johnsongrass, read-out: Plant response rating; for pest or weed control at 31 g/ha: 31 g ai/ha; for pest or weed control at 62 g/ha: 62 g ai/ha; for pest or weed control at 125 g/ha: 125 g ai/ha; for pest or weed control at 250 g/ha: 250 g ai/ha; for Plant response rating, Johnsongrass: visual rating on scale 0 (no effect) to 100 (complete control), 13 to 15 d
# Procedure, shortened: as §1
# [5] = system: crabgrass, Large (large crabgrass, Digitaria sanguinalis); experiment: as above; conditions: for pest or weed control at 31 g/ha / pest or weed control at 62 g/ha / pest or weed control at 125 g/ha / pest or weed control at 250 g/ha: Digitaria sanguinalis, Crabgrass, Large, read-out: Plant response rating; for pest or weed control at 31 g/ha: 31 g ai/ha; for pest or weed control at 62 g/ha: 62 g ai/ha; for pest or weed control at 125 g/ha: 125 g ai/ha; for pest or weed control at 250 g/ha: 250 g ai/ha; for Plant response rating, Crabgrass, Large: visual rating on scale 0 (no effect) to 100 (complete control), 13 to 15 d
# Procedure, shortened: as §1
# [6] = system: chickweed (common chickweed, Stellaria media); experiment: Test C postemergence greenhouse herbicide test
# Description: At the same time, plants selected from these crop and weed species and also barley (winter barley, Hordeum vulgare), canarygrass (Phalaris minor), windgrass (Apera spica-venti), deadnettle (henbit deadnettle, Lamium amplexicaule), and chickweed (common chickweed, Stellaria media) were planted in pots containing Redi-Earth® planting medium (Scotts Company, 14111 Scottslawn Road, Marysville, Ohio 43041) comprising spaghnum peat moss, vermiculite, wetting agent and starter nutrients and treated with postemergence applications of test chemicals formulated in the same manner. Plants ranged in height from 2 to 18 cm (1- to 4-leaf stage) for postemergence treatments. Treated plants and controls were maintained in a greenhouse for 13 to 15 d, after which time all species were compared to controls and visually evaluated. Plant response ratings, summarized in Table C, are based on a scale of 0 to 100 where 0 is no effect and 100 is complete control. A dash (-) response means no test result.
# [7] = system: ducksalad (Heteranthera limosa); experiment: Test B flooded paddy test; conditions: Heteranthera limosa, 312 h; Flood, 250 g ai/ha; scale of 0 to 100, 0 is no effect, 100 is complete control; 13 to 15 d; read-out: Plant response rating, Ducksalad
# Procedure, shortened: (§2)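 Plants were raised to the 2-leaf stage, then pots were flooded to 3 cm above the soil and the test compound was applied directly into the paddy water, with that depth held throughout. After 13 to 15 d in a greenhouse, injury was rated visually against untreated controls on a 0–100 scale (0 = no effect, 100 = complete control).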
# [8] = system: barnyardgrass (Echinochloa crus-galli); experiment: Test B flooded paddy test; conditions: Echinochloa crus-galli, 312 h; Flood, 250 g ai/ha; scale of 0 to 100, 0 is no effect, 100 is complete control; 13 to 15 d; read-out: Plant response rating, Barnyardgrass
# Procedure, shortened: as §2
# rice (Oryza sativa) = experiment: Test B flooded paddy test; conditions: Oryza sativa, 312 h; Flood, 250 g ai/ha; scale of 0 to 100, 0 is no effect, 100 is complete control; 13 to 15 d; read-out: Plant response rating, Rice
# Procedure, shortened: as §2
# [9] = system: sedge, umbrella (small-flower umbrella sedge, Cyperus difformis); experiment: Test B flooded paddy test; conditions: Cyperus difformis, 312 h; Flood, 250 g ai/ha; scale of 0 to 100, 0 is no effect, 100 is complete control; 13 to 15 d; read-out: Plant response rating, Sedge, Umbrella
# Procedure, shortened: as §2
# [10] = system: oilseed rape (Brassica napus); experiment: Test C pre-/postemergence greenhouse herbicide test; conditions: Preemergence; for Plant response rating: Oilseed Rape; for Plant response rating, Oilseed Rape: visual rating on scale 0 (no effect) to 100 (complete control), 13 to 15 d
# Procedure, shortened: as §1
# [11] = Triticum aestivum, post-emergence, Wheat, Postemergence, read-out: Plant response rating
# [12] = Triticum aestivum, pre-emergence, Wheat, Preemergence, read-out: Plant response rating
smiles,measurement,setting,value
"Cc1cc(=O)n(-c2ccc(F)cc2)nc1Oc1ccnc(C(F)(F)F)c1 [Compound 14, 2-(4-fluorophenyl)-5-methyl-6-[[2-(trifluoromethyl)-4-pyridinyl]oxy]-3 (2H)-pyridazinone]",plant injury at 31 g/ha,"[1]; Triticum aestivum, post-emergence, Wheat, Postemergence, 31 g ai/ha, read-out: Plant response rating",5%
same,plant injury at 62 g/ha,[1]; [11],5%
same,plant injury at 125 g/ha,[1]; [11],5%
same,plant injury at 250 g/ha,[1]; [11],5%
same,plant injury at 62 g/ha,[1]; [12],0%
same,plant injury at 125 g/ha,[1]; [12],15%
same,plant injury at 250 g/ha,[1]; [12],25%
same,pest or weed control at 31 g/ha,"[2]; post-emergence, Postemergence",60%
same,pest or weed control at 62 g/ha,"[2]; post-emergence, Postemergence",65%
same,pest or weed control at 125 g/ha,"[2]; post-emergence, Postemergence",80%
same,pest or weed control at 250 g/ha,"[2]; post-emergence, Postemergence",85%
same,pest or weed control at 31 g/ha,"[2]; pre-emergence, Preemergence",100%
same,pest or weed control at 62 g/ha,"[2]; pre-emergence, Preemergence",100%
same,pest or weed control at 125 g/ha,"[2]; pre-emergence, Preemergence",100%
same,pest or weed control at 250 g/ha,"[2]; pre-emergence, Preemergence",100%
same,pest or weed control at 31 g/ha,"[3]; post-emergence, Postemergence",50%
same,pest or weed control at 62 g/ha,"[3]; post-emergence, Postemergence",50%
same,pest or weed control at 125 g/ha,"[3]; post-emergence, Postemergence",60%
same,pest or weed control at 250 g/ha,"[3]; post-emergence, Postemergence",70%
same,pest or weed control at 31 g/ha,"[3]; pre-emergence, Preemergence",5%
same,pest or weed control at 62 g/ha,"[3]; pre-emergence, Preemergence",15%
same,pest or weed control at 125 g/ha,"[3]; pre-emergence, Preemergence",30%
same,pest or weed control at 250 g/ha,"[3]; pre-emergence, Preemergence",55%
same,pest or weed control at 31 g/ha,"[4]; post-emergence, Postemergence",10%
same,pest or weed control at 62 g/ha,"[4]; post-emergence, Postemergence",15%
same,pest or weed control at 125 g/ha,"[4]; post-emergence, Postemergence",25%
same,pest or weed control at 250 g/ha,"[4]; post-emergence, Postemergence",30%
same,pest or weed control at 31 g/ha,"[4]; pre-emergence, Preemergence",5%
same,pest or weed control at 62 g/ha,"[4]; pre-emergence, Preemergence",35%
same,pest or weed control at 125 g/ha,"[4]; pre-emergence, Preemergence",35%
same,pest or weed control at 250 g/ha,"[4]; pre-emergence, Preemergence",85%
same,pest or weed control at 31 g/ha,"[5]; post-emergence, Postemergence",10%
same,pest or weed control at 62 g/ha,"[5]; post-emergence, Postemergence",10%
same,pest or weed control at 125 g/ha,"[5]; post-emergence, Postemergence",15%
same,pest or weed control at 250 g/ha,"[5]; post-emergence, Postemergence",30%
same,pest or weed control at 31 g/ha,"[5]; pre-emergence, Preemergence",80%
same,pest or weed control at 62 g/ha,"[5]; pre-emergence, Preemergence",100%
same,pest or weed control at 125 g/ha,"[5]; pre-emergence, Preemergence",100%
same,pest or weed control at 250 g/ha,"[5]; pre-emergence, Preemergence",100%
same,Plant response rating,[6]; 31 g ai/ha,35
same,Plant response rating,[6]; 62 g ai/ha,35
same,Plant response rating,[6]; 125 g ai/ha,35
same,Plant response rating,[6]; 250 g ai/ha,55
same,pest or weed control at 250 g/ha,[7],75%
same,pest or weed control at 250 g/ha,[8],40%
same,plant injury at 250 g/ha,rice (Oryza sativa),30%
same,pest or weed control at 250 g/ha,[9],75%
"CCOc1cc(=O)n(-c2ccc(F)cc2)nc1C(O)c1ccnc(C(F)(F)F)c1 (centres unmarked) [Compound 23, 5-ethoxy-2-(4-fluorophenyl)-6-[hydroxy[2-(trifluoromethyl)-4-pyridinyl]methyl]-3(2H)-pyridazinone]","Plant response rating, Wheat","[1]; Preemergence, 8 g ai/ha",0
same,"Plant response rating, Wheat","[1]; Preemergence, 16 g ai/ha",0
same,plant injury at 62 g/ha,[1]; [12],10%
same,pest or weed control at 31 g/ha,"[2]; pre-emergence, Preemergence",100%
same,pest or weed control at 62 g/ha,"[2]; pre-emergence, Preemergence",100%
same,"Plant response rating, Pigweed","[2]; Preemergence, 8 g ai/ha",98
same,"Plant response rating, Pigweed","[2]; Preemergence, 16 g ai/ha",100
same,Plant response rating,[10]; 31 g ai/ha,80
same,Plant response rating,[10]; 62 g ai/ha,85
same,"Plant response rating, Oilseed Rape",[10]; 8 g ai/ha,5
same,"Plant response rating, Oilseed Rape",[10]; 16 g ai/ha,5
same,pest or weed control at 31 g/ha,"[3]; pre-emergence, Preemergence",60%
same,pest or weed control at 62 g/ha,"[3]; pre-emergence, Preemergence",55%
same,"Plant response rating, Ragweed","[3]; Preemergence, 8 g ai/ha",0
same,"Plant response rating, Ragweed","[3]; Preemergence, 16 g ai/ha",60
same,"Plant response rating, Johnsongrass","[4]; Preemergence, 8 g ai/ha",0
same,"Plant response rating, Johnsongrass","[4]; Preemergence, 16 g ai/ha",5
same,pest or weed control at 31 g/ha,"[4]; pre-emergence, Preemergence",5%
same,pest or weed control at 62 g/ha,"[4]; pre-emergence, Preemergence",10%
same,pest or weed control at 31 g/ha,"[5]; pre-emergence, Preemergence",65%
same,pest or weed control at 62 g/ha,"[5]; pre-emergence, Preemergence",100%
same,"Plant response rating, Crabgrass, Large","[5]; Preemergence, 8 g ai/ha",5
same,"Plant response rating, Crabgrass, Large","[5]; Preemergence, 16 g ai/ha",50
same,pest or weed control at 250 g/ha,[7],80%
same,pest or weed control at 250 g/ha,[8],10%
same,plant injury at 250 g/ha,rice (Oryza sativa),10%
same,pest or weed control at 250 g/ha,[9],70%
